Measured values from patent US11571485B2, “Peptides and antibodies for detecting changes in alzheimer's disease brain and methods of use thereof” (Sanford Burnham Prebys Medical Discovery Institute, priority 2016, dated 2023).

Tests used:
[1] = system: P13 model of angiogenic glioblastoma; experiment: In vivo homing in P13 glioblastoma model; parameters: species or system mouse; conditions: systemically injected
Procedure: (§1) All animal experiments were conducted under an approved protocol of the Institutional Animal Care and Use Committee of Sanford Burnham Prebys Medical Discovery Institute. The following transgenic mouse models were used for peptide homing studies—hAPP-J20 ([…], Nature genetics 1, 345-347 (1992)), Tg2576 (Jacobsen et al., Proc Natl Acad Sci USA 103, 5161-5166 (2006)), and mTHY-1-α-synuclein model (Chesselet et al., Neurotherapeutics 9, 297-314 (2012)). The P13 glioblastoma model is a patient-derived orthotopic xenograft model (Bougnaud et al., Oncotarget, (2016)). Spheroids were cultured as described previously (Bjerkvig et al., J Neurosurg 72, 463-475 (1990)). After two weeks in culture, spheroids (volume 2.5 μl) were stereotactically implanted into the brains of nude mice. Mice were used approximately 6 weeks after tumors were induced, when mice started presenting neurological symptoms. The acute brain injury model was setup as previously described (Mann et al., Nature communications 7, 11980 (2016)). Briefly, 8 to 10 week-old male BL6 mice were anaesthetized with 4% isoflurane in 70% N2O and 30% O2, and a 5-mm craniotomy was performed using a portable drill and a trephine over the right parietotemporal cortex using a stereotactic frame. […]

[2] = system: hAPP-J20 mouse brain (hippocampus)
Procedure: The synthetic peptides were labeled with FAM and 100 nmol and were intravenously injected to 9-month old AD mice through the tail vein. The peptides were allowed to circulate for 30 min, after which the mice were perfused with 20 ml of PBS, the brains were collected and snap-frozen in OCT for sectioning. The peptides were detected by anti-FAM staining (green), nuclei were stained with DAPI (blue), and anti-CD31 was used to visualize blood vessels.
For peptide homing, mice were intravenously injected with 50 nmole peptide dissolved in PBS, and allowed to circulate for 30 min. Mice were then perfused intracardially with saline and all major organs were isolated and fixed in 4% paraformaldehyde (PFA) at pH 7.4 overnight. The organs were then washed with PBS and placed in graded sucrose solutions overnight before optimal cutting temperature compound (OCT) embedding. Ten-micro-meter-thick sections were cut and analyzed by immunostaining.
Frozen sections were permeabilized using PBS- 0.2% Triton™ X-100 (PBST), blocking was carried out using blocking buffer (5% BSA, 1% goat serum, 1% donkey serum in PBST. Primary antibodies were incubated in diluted (1%) blocking buffer overnight at dilutions 1/100 or 1/200 at 4° C., washed with PBST and incubated with secondary antibodies diluted 1/200 or 1/500 in 1% diluted buffer for 1 hour at room temperature, subsequently washed with PBST, counterstained with DAPI 1 μg/mL in PBS for 5 minutes, washed with PBS, mounted using aqueous mounting media (Vector Biolabs), and imaged using a confocal microscope (Zeiss LSM-710).

[3] = system: acute penetrating brain injury; experiment: In vivo homing in acute penetrating brain injury model; parameters: species or system mouse; conditions: injected 6 hours after injury
Procedure: as §1

CDAGRKQKC
Tumor homing [1]: Strong tumor homing
Homing in early-stage AD ([2]; 3-4 month old hAPP-J20 mice, i.v., 30 min): Robust DAG homing in young hAPP-J20 animals was observed, mostly in the cerebrocortex and the hippocampus
Cellular localization in brain ([2]; DAG-injected hAPP-J20 mice, anti-GFAP and anti-Aβ staining): accumulated within a subpopulation of GFAP-positive hypertrophic astrocytes surrounding the Aβ plaques
Accumulation in other organs ([2]; mouse, in vivo, iv): little if any accumulation of the peptide in other organs of the hAPP-J20 mouse except for kidney
Homing to brain injury [3]: robustly homed to the perilesional area containing activated hypertrophic astrocytes
